Values joined by “and” are separate entries in the source; they are usually repeats but may differ in a detail not shown here. Identical values can stand only once. “Also recorded” adds a separate entry of the source. Like-named read-outs stand apart in the source and are kept apart here.
Columns and labels:
[1] = system: PXB-mouse humanized liver mice (human hepatocytes); test: PXB-mouse humanized liver mice study; format: in vivo; set-up: key to BW: body weight in g; Cho / CHO in LDL / CHO in HDL / CHO in VLDL / CHO in Chylom / TG / TG in LDL / TG in HDL / TG in VLDL / TG in Chylo / rel LW: unit not given here
Description: PXB-mouse® are mice with background genotype: cDNA-uPAwild/+/SCID [cDNA-uPAwild/+: B6;129SvEv-Plau, SCID: C.B-17/Icr-scid /scid Jcl]. Mice contain human hepatocytes with an estimated replacement index of 70% or more in the liver, which is calculated based on the blood concentration of human albumin (h-Alb). Human hepatocytes for the experiment were obtained from BD195 (Corning Incorporated, Tewksbury, MA, USA).
Male mice (n = 5 per group) were used for the experiments with the following characteristics: 19 to 23 weeks old on Day 0, body weights on Day 0 (19.3 to 22.3 g), and blood h-Alb Level (from 9.1 to 15.0 mg/mL).
MI-883 was applied in the following vehicle: corn oil (90%)/DMSO (5%)/PEG30 (5%) formulation of MI-883 2.5 mg/kg (1.5 mL) to treated animals. The same vehicle was used in the control group. MI-883 was applied via p.o. gavage using disposable plastic sondes (Fuchigami Kikai Co., Kyoto, Japan) at the dose of 2.5 mg/kg every day ([…] -day 0-Day 7).
The target volume of blood (200 μL) was collected from all subject animals under isoflurane anesthesia via the retro-orbital plexus/sinus using calibrated pipettes (Drummond Scientific Company, PA, USA) at each time point after 4 h of fasting. Isoflurane inhalation solution was also used at the terminal blood sampling. The livers were snap-frozen in two or more pieces in one tube in liquid nitrogen. These frozen liver samples were stored at −80 °C. Urine was directly collected from the urinary bladder using a syringe. Bile was directly collected from the gallbladder using a syringe.
Serum h-ALT1 concentration was determined based on an Enzyme-Linked ImmunoSorbent Assay (ELISA) developed by the Institute of Immunology Co., Ltd (Tokyo, Japan) (for details see Supplementary, Chapter 11).
The clinical chemistry analyzer (BioMajestyTM Series JCA-BM6050, JEOL Ltd., Tokyo, Japan) was used to measure the blood h-Alb. LipoSEARCH to determine the serum level of total cholesterol, triglyceride, chylomicron, VLDL, LDL, and HDL was performed by SkyLight Biotech (Akita, Japan). Serum h-ALT1 concentration was determined based on an Enzyme-Linked ImmunoSorbent Assay (ELISA) developed by the Institute of Immunology Co., Ltd. (Tokyo, Japan). SpectraMax® ABS Plus Microplate Readers (Molecular Devices LLC, San Jose, CA, USA) were used for this measurement.

[2] = system: FXR, LXRα, LXRβ, THα, GRα, PPARα, PPARδ/β, PPARγ, AhR, VD, ERα, ERβ, mouse Car; test: Nuclear receptor luciferase reporter panel (statements on the whole panel); format: cell-based
From the text: (see Supplementary Chapter 7).
Thank you for the insightful question and comment. We have corrected the sentence to read:
Thank you for the idea. Yes, we conducted luciferase reporter assays in antagonistic "mode" for several nuclear receptors using their prototype ligands in the revised manuscript (Figure R7).
This information is included in the Supplementary Information.
Treatment with 5 and 10 µM
(1 picture or pasted object on this page, not shown here) […]
nM dexamethasone, 10 µM GW3965 (LXRα agonist), and 10 µM estradiol. Data are presented as a […]

human PXR = biological target: T1, human PXR (Homo sapiens, UniProt O75469); test: PXR luciferase reporter gene assay (CYP3A4-luc) in HepG2 cells; format: cell-based; set-up: host or cells: HepG2
T1 sequence (O75469 1-434): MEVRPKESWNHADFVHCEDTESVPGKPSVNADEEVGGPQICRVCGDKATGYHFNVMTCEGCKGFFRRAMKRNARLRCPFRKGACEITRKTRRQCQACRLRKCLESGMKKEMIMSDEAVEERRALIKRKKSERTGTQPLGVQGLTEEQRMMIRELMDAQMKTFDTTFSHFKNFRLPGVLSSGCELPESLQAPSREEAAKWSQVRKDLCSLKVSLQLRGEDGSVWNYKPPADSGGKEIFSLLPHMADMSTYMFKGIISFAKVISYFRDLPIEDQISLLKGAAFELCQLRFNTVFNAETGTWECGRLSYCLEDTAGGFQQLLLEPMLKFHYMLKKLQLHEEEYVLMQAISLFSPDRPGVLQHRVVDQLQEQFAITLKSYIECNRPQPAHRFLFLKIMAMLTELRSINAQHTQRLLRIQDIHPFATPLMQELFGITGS
Description: The half maximal effective concentration (EC50) to activate CAR or inhibit PXR (IC50) in the assays was calculated from at least eight points of the dose-response curves using the GraphPad Prism software.

VD = VD (Homo sapiens, UniProt P11473); test: Luciferase reporter gene assay VD receptor, HepG2
Sequence of VD (P11473 127-423 limits assumed): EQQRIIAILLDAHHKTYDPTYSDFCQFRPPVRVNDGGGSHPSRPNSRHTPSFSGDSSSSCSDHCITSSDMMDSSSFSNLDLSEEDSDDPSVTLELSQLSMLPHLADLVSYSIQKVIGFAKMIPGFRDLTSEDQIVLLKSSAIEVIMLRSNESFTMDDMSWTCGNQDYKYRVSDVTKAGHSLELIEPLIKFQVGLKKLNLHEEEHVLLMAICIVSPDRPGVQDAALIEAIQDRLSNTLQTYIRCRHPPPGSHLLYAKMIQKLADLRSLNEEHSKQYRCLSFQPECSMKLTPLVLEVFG
From the text: The luciferase reporter gene assays for FXR, LXRα, LXRβ, THα, GRα, PPARα, PPARδ/β, PPARγ, AhR, VD, ERα, ERβ and mouse Car are described in our recent paper[19]
Gal4-LBD constructs of tested nuclear receptors have been used together with pGL4.31[luc2P/GAL4UAS/Hygro] luciferase reporter construct and pRL-TK Renilla expression vector (both from Promega, Hercules, USA) in HepG2 cells transfected with Lipofectamine 2000 or 3000 reagents. For GRα and FXR receptors, full-length expression vectors have been used with pGRE-luc or pFXRE-luc luciferase constructs. For the aryl hydrocarbon receptor (AhR), p1A1-luc construct was used with only pRL-TK vector for transfection normalization. A dual reporter assay (Promega, Hercules, USA) was used to analyze both firefly and Renilla luciferase activities.
Gal4-LBD constructs of tested nuclear receptors have been used together with pGL5-luc luciferase reporter construct and pRL-TK Renilla expression vector in HepG2 cells transfected with Lipofectamine 2000 or 3000 reagents. For GRα and FXR receptors, full-length expression vectors have been used with pGRE-luc or pFXRE-luc luciferase constructs. For the aryl hydrocarbon receptor (AhR), p1A1-luc construct was used with only pRL-TK vector for transfection normalization. […] Bars represent means±S.D. (n=3).

[3] = 2.5 mg/kg per day, one week, n = 5
[4] = FigS15, humanized liver mice, individual animals
[5] = FigS15, plasma total, individual animals
[6] = FigS15, plasma, individual animals
[7] = FigS17, individual animals, relative to control
[8] = humanized Liver mice, human gene, relative to control, individual animals
[9] = humanized Liver mice, mouse gene, relative to control, individual animals

NC(=O)c1cc(Cn2cc(-c3c(-c4ccc(Cl)cc4)nc4cc(F)ccn34)nn2)ccc1Cl [MI-883, 2-chloro-5-((4-(2-(4-chlorophenyl)-7-fluoroimidazo[1,2-a]pyridin-3-yl)-1H-1,2,3-triazol-1-yl)methyl)benzamide]
liver enlargement (LW/BW ratio) in PXB humanized liver mice ([1]; 2.5 mg/kg every day, 7 days): did not observe significant liver enlargement | proliferative biomarkers MDM2, PCNA, FOXM1 in PXB humanized liver mice ([1]; 2.5 mg/kg every day, 7 days): no significant effects | human albumin or human ALT (h-ALT1) ([1]; 2.5 mg/kg per day, one week): did not observe any increase | LDL and HDL cholesterol plasma concentrations in PXB mice [1, 3]: tendency for a decrease in LDL and an increase in HDL | total cholesterol concentration in PXB mice [1, 3]: did not reach statistical significance | BW [1, 4]: 21.1 and 21.2 and 18.9 and 21.4 | rel LW [1, 4]: 12.7 and 13.9 and 18.9 and 13.7 and 15.2 | h-ALT1 ([1]; FigS15, plasma biochemistry, individual animals): 32.4 and 23.1 and 36 and 38.8 and 27.9 | Cho [1, 5]: 59.5 and 63.3 and 87.8 and 100.6 and 69.3 | TG [1, 5]: 79.5 and 114.8 and 91.5 and 67.5 and 118.2 | CHO in Chylom [1, 6]: 0.4 and 0.8 and 0.7 and 0.6 | CHO in HDL [1, 6]: 16 and 14.3 and 11.7 and 8 and 13.8 | CHO in LDL [1, 6]: 26.1 and 26.5 and 51.9 and 65.5 and 32.2 | CHO in VLDL [1, 6]: 17 and 21.7 and 23.6 and 26.5 and 22.7 | TG in Chylo [1, 6]: 2.6 and 5 and 3.9 and 2.5 and 3.5 | TG in HDL [1, 6]: 3.2 and 3.7 and 4.2 and 3.6 and 4.3 | TG in LDL [1, 6]: 30.8 and 34.5 and 34.1 and 36.7 and 34 | TG in VLDL [1, 6]: 43 and 71.6 and 49.3 and 24.6 and 76.4 | ABCC4 mRNA (RT-qPCR in humanized liver mice) [1, 7]: 1.98 and 1.27 and 2.64 and 0.98 and 0.66 | CYP2B6 mRNA (RT-qPCR in humanized liver mice) [1, 7]: 7.04 and 2.86 and 13.89 and 12.41 and 7.61 | CYP3A4 mRNA (RT-qPCR in humanized liver mice) [1, 7]: 0.35 and 0.63 and 1.62 and 10.03 and 6.65 | HMGCR1 mRNA (RT-qPCR in humanized liver mice) [1, 7]: 0.23 and 0.46 and 0.39 and 0.62 and 1.11 | HMGCS2 mRNA (RT-qPCR in humanized liver mice) [1, 7]: 3.19 and 1.63 and 2.91 and 2.97 and 2.16 | LDLR mRNA (RT-qPCR in humanized liver mice) [1, 7]: 1.63 and 0.66 and 1.69 and 2.23 and 2.34 | SREBF1 mRNA (RT-qPCR in humanized liver mice) [1, 7]: 0.27 and 0.47 and 0.58 and 0.76 and 1.32 | UGT1A1 mRNA (RT-qPCR in humanized liver mice) [1, 7]: 3.46 and 1.67 and 5.52 and 2.7 and 2.14 | CYP2B6 mRNA in PXB humanized mice ([1]; Supplementary Fig. 17): upregulation | CYP3A4 mRNA in PXB humanized mice ([1]; Supplementary Fig. 17): have not significantly changed; also recorded: not statistically significant induction | Foxm1 RT-qPCR (Fig. 7d) [1, 8]: 1.35 and 2.21 and 1.02 and 0.71 and 2.23 | MKI67 RT-qPCR (Fig. 7d) [1, 8]: 0.96 and 0.82 and 1.24 and 0.52 and 0.59 | Foxm1 RT-qPCR (Fig. 7d) [1, 9]: 0.92 and 1.07 and 0.75 and 0.53 and 0.33 | Mki67 RT-qPCR (Fig. 7d) [1, 9]: 1.24 and 0.62 and 1.46 and 0.36 and 0.17 | interactions with other tested nuclear receptors (agonist mode) ([2]; 10 µM, 24 h, HepG2): no other interactions | inhibition of other nuclear receptors, antagonistic mode (FXR, THα, AhR, PPARα, PPARγ, GR, LXRα) ([2]; 5 and 10 μM with prototype ligands): not inhibit the other nuclear receptors | IC50 (human PXR; HepG2 cells, read-out: IC50, basal PXR activation): 2030 ± 300 nM | IC50 (human PXR; HepG2 cells, read-out: IC50, rifampicin-induced PXR activation): 3600 ± 400 nM | IC50 (human PXR; reply to reviewers, read-out: IC50 for PXR antagonistic activity): 2000 nM | NRs assays: VDR (relative to ctrl, replicates) (VD): 0.7 and 0.81 and 0.9
